From patent US20260049055A1, “SOLID FORMS OF […] […] USES THEREOF” (Sensorium Therapeutics, Inc., priority 2022, published 2026)

Key:
[1] = target: sodium-dependent serotonin transporter (SERT) (Homo sapiens, UniProt P31645); conditions: reported for naturally occurring material from Sceletium tortuosum; cited from earlier work
Sequence of sodium-dependent serotonin transporter (SERT) (P31645 whole entry, species assumed): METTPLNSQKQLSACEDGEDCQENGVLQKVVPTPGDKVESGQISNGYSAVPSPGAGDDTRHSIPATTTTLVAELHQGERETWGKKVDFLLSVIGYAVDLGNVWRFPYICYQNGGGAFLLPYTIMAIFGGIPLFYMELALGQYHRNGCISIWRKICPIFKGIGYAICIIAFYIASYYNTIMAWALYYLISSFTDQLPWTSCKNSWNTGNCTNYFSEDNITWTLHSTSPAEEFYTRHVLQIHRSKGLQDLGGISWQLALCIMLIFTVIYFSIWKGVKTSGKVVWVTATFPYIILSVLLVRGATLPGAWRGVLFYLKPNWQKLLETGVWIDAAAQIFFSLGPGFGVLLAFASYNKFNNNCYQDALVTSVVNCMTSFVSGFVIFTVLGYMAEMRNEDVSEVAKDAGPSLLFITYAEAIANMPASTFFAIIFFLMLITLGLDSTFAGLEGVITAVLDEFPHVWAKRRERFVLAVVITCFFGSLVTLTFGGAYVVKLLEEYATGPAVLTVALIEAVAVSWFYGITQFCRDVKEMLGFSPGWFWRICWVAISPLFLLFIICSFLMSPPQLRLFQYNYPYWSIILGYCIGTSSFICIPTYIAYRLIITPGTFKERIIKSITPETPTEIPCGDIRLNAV

[2] = Solubility of Freeform Form A in solvents; type: physicochemical
Excerpt: Freeform Form A was a gum material. The material had the solubility shown below:

Row | SMILES | serotonin (5-HT) uptake inhibition, in words [1] | Solubility (mg/mL) ([2]; solvent 1,4-Dioxane) | Solubility (mg/mL) ([2]; solvent 2-MeTHF) | Solubility (mg/mL) ([2]; solvent ACN) | Solubility (mg/mL) ([2]; solvent Acetone) | Solubility (mg/mL) ([2]; solvent CPME) | Solubility (mg/mL) ([2]; solvent DCM) | Solubility (mg/mL) ([2]; solvent EtOH) | Solubility (mg/mL) ([2]; solvent H2O) | Solubility (mg/mL) ([2]; solvent IPA) | Solubility (mg/mL) ([2]; solvent IPAc) | Solubility (mg/mL) ([2]; solvent MIBK) | Solubility (mg/mL) ([2]; solvent MTBE) | Solubility (mg/mL) ([2]; solvent MeOH) | Solubility (mg/mL) ([2]; solvent THF)
1 | COc1ccc([C@@]23CCC(=O)C[C@@H]2N(C)CC3)cc1OC [Compound 1, (3aS,7aS)-3a-(3,4-dimethoxyphenyl)-1-methyl-2,3,4,5,7,7a-hexahydroindol-6-one] | serotonin (5-HT) uptake inhibitory activity | – | – | – | – | – | – | – | – | – | – | – | – | – | –
2 | COc1ccc([C@@]23CCC(=O)C[C@@H]2N(C)CC3)cc1OC [Freeform Form A, (3aS,7aS)-3a-(3,4-dimethoxyphenyl)-1-methyl-2,3,4,5,7,7a-hexahydroindol-6-one] | – | S > 40.0 mg/mL | S > 40.0 mg/mL | S > 44.0 mg/mL | S > 40.0 mg/mL | S > 40.0 mg/mL | S > 42.0 mg/mL | S > 42.0 mg/mL | S > 42.0 mg/mL | S > 38.0 mg/mL | S > 36.0 mg/mL | S > 38.0 mg/mL | S > 40.0 mg/mL | S > 36.0 mg/mL | S > 44.0 mg/mL
